Values quoted from earlier work, collected in the CATMoS acute toxicity set (Mansouri et al. 2021).
Several values for one entry are separate records, joined by “and”; a condition that tells them apart may be missing. Equal values may be shown once.

Test: rat acute oral toxicity
Settings: in vivo

SMILES | LD50
O=C(NCCO)c1ccccc1O | 4300 mg/kg
CCC(CO)(CO)CO | 14100 mg/kg
CCOc1cc2c3c([nH]c2cc1N)CCCC3 | 810 mg/kg
NC1CCCC(N)C1 (configuration not stated) | 390 mg/kg
Oc1cc2c3c(c1)c1cc4c(cc1c[n+]3CC2)OCO4 | 90 mg/kg
CC(C)C(=O)Nc1ccc([N+](=O)[O-])c(C(F)(F)F)c1 | 787 mg/kg
CC(O)=S | 200 mg/kg
CCc1cc2c(cc1C(C)=O)C(C)(C)CCC2(C)C | 260 mg/kg
CC(=O)N[C@@H](CC(C)C)C(=O)N[C@@H](CC(C)C)C(=O)N[C@H](C=O)CCCNC(=N)N | 720 mg/kg
O=C(O)c1cc(C(=O)O)cc(S(=O)(=O)O)c1 | 2600 mg/kg and 6450 mg/kg
C=CCOC(=O)CCCCCCC | 570 mg/kg
CCOC(=O)N(Cc1ccccc1)C1CC1 | 1380 mg/kg
CN1C(C(=O)Nc2ccccn2)=C(OC(=O)C23CC4CC(CC(C4)C2)C3)c2sc(Cl)cc2S1(=O)=O | 100 mg/kg
O=CNc1ccc(Cl)cc1 | 750 mg/kg
CC(=O)c1cccc(N=Nc2ccc(N(C)C)cc2)c1 | 4820 mg/kg
CCOP(=O)(OCC)SCC1(C)SCCS1 | 28 mg/kg
OC(CBr)C(O)C(O)C(O)CBr (configuration not stated) | 1000 mg/kg
CCC(C)=CCCC(C)=CC#N | 2600 mg/kg
Nc1ccc(OC(F)(F)C(F)F)c(N)c1 | 1070 mg/kg
Cc1cccc(C(C)c2ccccc2)c1C (configuration not stated) | 2050 mg/kg
Cc1ccc(O)c([N+](=O)[O-])c1 | 3360 mg/kg
Cc1ccc(N2C(=O)C=CC2=O)cc1 | 710 mg/kg
C/C=C1/C[C@@H](C)[C@](O)(CO)C(=O)OCC2=CC[N+]3([O-])CC[C@@H](OC1=O)[C@@H]23 (some centres not stated) | 48 mg/kg
CCCCC1C(=O)NC(=O)N(C2CCCCC2)C1=O (configuration not stated) | 1120 mg/kg

SMILES | LD50
Cc1ccc(C)c(N)c1 | 1300 mg/kg
CCCCC(CC)CNCC(C)(N)CN(C)CC(CC)CCCC (configuration not stated) | 1000 mg/kg
C=CC(=O)NCNC(=O)C=C | 390 mg/kg
CCOC(=O)Nc1ccc2c(c1)N(C(=O)CCN1CCN(CCO)CC1)c1ccccc1CC2 | 147 mg/kg
NCc1cccc(CN)c1 | 930 mg/kg
O=S(=O)(F)C1CCC(S(=O)(=O)F)C1 (configuration not stated) | 7.9 mg/kg
CC(=O)Oc1cc(C(C)C)c(OCCN(C)C)cc1C | 740 mg/kg
CC1N(c2ccccc2)C(=O)c2ccccc2N1C(=O)CN1CCOCC1 (configuration not stated) | 1710 mg/kg
O=C(OCCOCCN1CCCCC1)N1c2ccccc2Sc2cccnc21 | 530 mg/kg
CCOc1c(N2CCOCC2)cnn(C)c1=O | 1900 mg/kg
CBr | 214 mg/kg
Cc1cccc(CN(C)N=O)c1 | 600 mg/kg
O=C1CCCCCCCC(=O)OCCO1 | 9200 mg/kg
CCC/C=C/CO | 3500 mg/kg
Nc1ccc(-c2ccc(N)c(Cl)c2)cc1Cl | 3820 mg/kg
O=C(O)CCC(CC(=O)O)(C(=O)O)P(=O)(O)O (configuration not stated) | 4000 mg/kg
CC(C)=CCC/C(C)=C/C#N | 3100 mg/kg
O=C(Nc1cccc(Cl)c1)OCC#CCOC(=O)Nc1cccc(Cl)c1 | 2040 mg/kg
COP(=O)(OC)OC(Cl)C(Cl)(Br)Br (configuration not stated) | 49 mg/kg
CCOC(=S)c1ccc(Cl)cc1 | 995 mg/kg
CCOc1ccc(-c2ccccc2)cc1CN1CCCC1 | 30 mg/kg
CC1=C(C(=O)Nc2ccccc2)CCCO1 | 15000 mg/kg
CC=Cc1ccc(OC(C)=O)c(OC)c1 | 3450 mg/kg
BrC12CC3CC(CC(C3)C1)C2 | 8470 mg/kg

SMILES | LD50
COc1cc2c(cc1OC)[C@@]13CCN4CC5=CCO[C@H]6CC(=O)N2[C@H]1[C@H]6[C@H]5C[C@H]43 | 1 mg/kg
CN1CC2=C(C1)CN(c1c(F)cc3c(=O)c(C(=O)O)cn(C4CC4)c3c1F)C2 | 1060 mg/kg
CCOP(=S)(OCC)Oc1ccc(SC)c(C)c1 | 14 mg/kg
COc1cc2nc(N3CCN(C(=O)C4CCCO4)CC3)nc(N)c2cc1OC (configuration not stated) | 5500 mg/kg
CCN(CC)C(C)C(=O)c1ccccc1 (configuration not stated) | 400 mg/kg
CC(C)c1cccc(OC(=O)N(C)C)c1 | 160 mg/kg
CCC(=O)OCCc1ccccc1 | 4000 mg/kg
ON=C1C=CC(=NO)C=C1 | 464 mg/kg
CCC(=O)OC1CCC(N2CCCCC2)CC1 (configuration not stated) | 1980 mg/kg
CC/C=C\CCOCC=O | 4100 mg/kg
CNC(=O)Oc1cccc2c1OC(C)(C)O2 | 40 mg/kg
Nc1cc(S(=O)(=O)O)cc2c1C(=O)C(=NNc1ccc(NN=C3C(=O)c4c(O)cc(S(=O)(=O)O)cc4C=C3S(=O)(=O)O)cc1)C(S(=O)(=O)O)=C2 | 12000 mg/kg
CCCCC(CC)COC(C[n+]1ccccc1)c1ccccc1 (configuration not stated) | 250 mg/kg
CCCCNC(=O)NS(=O)(=O)c1ccc(N)cc1 | 4400 mg/kg
ClC1=C(Cl)C2(Cl)C(Cl)=C(Cl)C3C1C(Cl)CC32 (configuration not stated) | 10200 mg/kg
CN(C(=O)CN(CCO)CC(=O)N(C)C(C)(C)Cc1ccccc1)C(C)(C)Cc1ccccc1 | 1000 mg/kg and 675 mg/kg
COc1cccc2c1cc([N+](=O)[O-])c1c(C(=O)O)cc3c(c12)OCO3 | 184 mg/kg
C=CC(Cl)=C(Cl)Cl | 680 mg/kg
COc1ccc(CN2CCNCC2)c(OC)c1OC | 1700 mg/kg
CNC(=O)ON=CC1(C)SC(C)C(C)S1 (configuration not stated) | 2.5 mg/kg
CC(=O)c1ccccn1 | 2280 mg/kg
CNCCc1ccc(OC(=O)C(C)C)c(OC(=O)C(C)C)c1 | 2930 mg/kg
CCC1(CCC(C)C)C(=O)NC(=O)NC1=O | 250 mg/kg
O=C(CCC1CCN(Cc2ccccc2)CC1)c1ccc2c(c1)NCCCC2 | 334 mg/kg

SMILES | LD50
CCCCOCCC(=O)O | 5190 mg/kg
C=CC(=O)OC(C)COCC(C)OC(=O)C=C (configuration not stated) | 4600 mg/kg
O=c1n(CC2CO2)c(=O)n(CC2CO2)n1CC1CO1 (configuration not stated) | 250 mg/kg
CC(C)C(C(=O)OC(C#N)c1ccc(Oc2ccccc2)cc1)c1ccc(Cl)cc1 (configuration not stated) | 451 mg/kg
Clc1ccc(COC(Cn2ccnc2)c2ccc(Cl)cc2Cl)c(Cl)c1 (configuration not stated) | 920 mg/kg and 550 mg/kg
O=c1[nH]c2cc(Br)ccc2o1 | 1050 mg/kg
N#CN=c1ccccn1Cc1c(Cl)cccc1Cl | 500 mg/kg
NC(=O)CCN1CCN(C2Cc3cc(Cl)ccc3Sc3cc(F)ccc32)CC1 (configuration not stated) | 472 mg/kg and 490 mg/kg
CC(=Cc1ccccc1)CC(=O)N(CCO)CCO | 1500 mg/kg
C#CCCCC#C | 2300 mg/kg
CC(Cl)(Cl)Cl | 9600 mg/kg
CCCCOC(=O)N(C)SN(C)C(=O)Oc1cccc2c1OC(C)(C)C2 | 53 mg/kg
CCOC(=O)/C=C/C(=O)OCC | 1780 mg/kg
O=c1[nH]c2ccccc2o1 | 700 mg/kg
C[N+](C)(C)C | 77 mg/kg and 50 mg/kg
OC(CNCCNCC(O)COc1ccccc1)COc1ccccc1 (configuration not stated) | 2920 mg/kg
CCC(C)OCCO (configuration not stated) | 790 mg/kg
O=C(O)CCC(=O)Nc1ccc(NS(=O)(=O)c2ccc([N+](=O)[O-])cc2)cc1 | 1500 mg/kg
CCS | 682 mg/kg
FC1(F)C(Cl)=C(Cl)C(F)(F)C1(F)F | 280 mg/kg
NNC(=O)[C@@H](N)CS | 1050 mg/kg
COC(=S)SSC(Cl)(Cl)Cl | 1540 mg/kg
ClC(Cl)C(Cl)C(Cl)C(Cl)Cl (configuration not stated) | 400 mg/kg
CC1(C)COS(=O)(=O)OC1 | 10 mg/kg

SMILES | LD50
CCCC(=O)Nc1c(I)cc(I)c(CC(CC)C(=O)O)c1I (configuration not stated) | 6500 mg/kg
CCCCNC(=O)OCC(O)C1COc2ccccc2O1 (configuration not stated) | 1500 mg/kg
Cc1ccc(-c2nc3n(c2C=NNC(=O)CN(C)C)CCS3)cc1 | 800 mg/kg
NCC(=O)O | 7930 mg/kg and 3340 mg/kg
CCOP(=S)(OCC)SCCSCC(=O)NC | 18 mg/kg
COc1ccc2c(c1)OC(C)(C)[C@H](c1ccccc1)[C@H]2c1ccc(OCCBr)cc1 | 500 mg/kg
O=C1NC(=O)C2C3C(C(O)(c4ccccc4)c4ccccn4)=CC(C3=C(c3ccccc3)c3ccccn3)C12 (configuration not stated) | 6 mg/kg
C=COCCOCCO | 4930 mg/kg
O=C(Nc1ccc(Nc2ccc(NC(=O)c3ccccc3)c3c2C(=O)c2ccccc2C3=O)c2c1C(=O)c1ccccc1C2=O)c1ccccc1 | 19300 mg/kg
CC[N+]1(CC)CCC(=C(c2ccccc2)c2ccccc2)C1C (configuration not stated) | 1090 mg/kg
C=C(C)OC(C)=O | 3000 mg/kg
CCCC[C@H](C)[C@H](O)C#C[C@H]1CCC(=O)[C@@H]1CC=CCCCC(=O)OC | 338 mg/kg
O=C(O)Cc1cc(O)ccc1Nc1c(Cl)cc(O)cc1Cl | 1000 mg/kg
CC(=O)O[C@@H]1C[C@]2(O)[C@H](CC[C@]3(C)[C@@H](c4ccc(=O)oc4)CC[C@@]32O)[C@@]2(C)CC[C@H](O[C@@H]3O[C@H](CO)[C@@H](O)[C@H](O)[C@H]3O)C=C12 | 0.43 mg/kg
c1ccc2[nH]c(-c3cscn3)nc2c1 | 3600 mg/kg and 3100 mg/kg
Nc1cc2c(S(=O)(=O)O)cc(S(=O)(=O)O)cc2cc1S(=O)(=O)O | 13000 mg/kg
CC1=C(C(=O)OCCN(C)Cc2ccc(F)cc2)C(c2cccc3c2OCO3)C(C(=O)OC(C)C)=C(C)N1 (configuration not stated) | 64 mg/kg
CN(C)c1ccc(N=NS(=O)(=O)O)cc1 | 60 mg/kg
CN(C)C(=O)NC1CCC2C3CCC(C3)C12 (configuration not stated) | 1600 mg/kg
Cc1c([N+](=O)[O-])cc(N)cc1[N+](=O)[O-] | 959 mg/kg
O=C1CCCN1c1cccc2cccnc12 | 1650 mg/kg
COc1ccc([N+](=O)[O-])cc1CNCCCl | 28 mg/kg
O=C1CC(c2cccc(Br)c2)C(=O)N1 (configuration not stated) | 1750 mg/kg
CCOP(=O)(OCC)ON=C(C1CC1)C1CC1 | 7.85 mg/kg

SMILES | LD50
CNC(=O)ON=C1CSC(C)(C)S1 | 2 mg/kg
CC(=O)OC(c1ccc(Cl)c(Cl)c1)C(Cl)(Cl)Cl (configuration not stated) | 10000 mg/kg
Cc1nc(C(C)C)c(=O)[nH]c1C | 903 mg/kg
O=S(=O)(O)c1ccc2c(/N=N\c3ccc(S(=O)(=O)O)c4ccccc34)c(O)c(S(=O)(=O)O)cc2c1 | 6000 mg/kg
CCOC(=O)CSP(=O)(OCC)OCC | 45 mg/kg
CCc1cc2c(s1)-n1c(C)nnc1CN=C2c1ccccc1Cl | 3510 mg/kg
c1ccc2cnccc2c1 | 360 mg/kg
O=S(=O)(Nc1ncc(OCCO)cn1)c1ccccc1 | 8000 mg/kg
OCCCCC(O)CO (configuration not stated) | 15500 mg/kg
O=C(CCCN1CCN2Cc3[nH]c4ccccc4c3CC2C1)c1ccc(F)cc1 (configuration not stated) | 700 mg/kg
CC(=O)OCC1=C(C(=O)O)N2C(=O)[C@@H](NC(=O)CSc3ccncc3)[C@H]2SC1 | 16400 mg/kg
CC[N+](CC)(CC)CC | 2630 mg/kg
CCCN(CCC)C(=O)C(CCC(=O)O)NC(=O)c1ccccc1 (configuration not stated) | 20000 mg/kg and 8200 mg/kg
O=C(Oc1ccccc1)c1ccccc1O | 3000 mg/kg
OCCN1CCCCC1 | 1500 mg/kg
COc1ccc(CNCC(O)COc2ccc3[nH]c(=O)ccc3c2)cc1OC (configuration not stated) | 1500 mg/kg
FC(F)(F)C(F)(F)C(F)(F)C(F)(F)C(F)(F)C(F)(F)C(F)(F)C[n+]1ccccc1 | 1160 mg/kg
Cc1ccc(NN)cc1 | 262 mg/kg
c1ccc2c(NC3=NCCS3)cccc2c1 | 50 mg/kg
COc1ccc(C(OC)C2CCCCC2N2CCCCC2)cc1 (configuration not stated) | 92 mg/kg
COP(=S)(OC)Oc1ccc(S(C)(=O)=O)c(C)c1 | 125 mg/kg
COc1ccc(OC)c2[nH]c(C(F)(F)F)nc12 | 60 mg/kg
